Measured values as given in ChEMBL document CHEMBL1201862, “PubChem BioAssay data set” (2004).
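Tested at 5 concentrations; 48 h exposure; 96-well plates; endpoints linearly interpolated, else capped at highest concentration. GI50 is the concentration that inhibits growth by half.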 Active and inactive are the calls of the source. Rule as the data show it: active = GI50 up to about 1.1 µM and inactive = higher.

What was measured:
Test in all cases: growth of human tumour cells (NCI), 48 h
A549 = tested on: A549
HT-29 = tested on: HT-29
UACC-257 = tested on: UACC-257
RXF 393 = tested on: RXF 393
SNB-19 = tested on: SNB-19
HOP-62 = tested on: HOP-62
SK-MEL-5 = tested on: SK-MEL-5
NCI-H460 = tested on: NCI-H460
OVCAR-5 = tested on: OVCAR-5
SW-620 = tested on: SW-620
EKVX = tested on: EKVX
SK-MEL-2 = tested on: SK-MEL-2
HCC 2998 = tested on: HCC 2998
U-251 = tested on: U-251
COLO 205 = tested on: COLO 205
NCI-H226 = tested on: NCI-H226

Measured: GI50

N=c1n(CC(=O)NC23CC4CC(CC(C4)C2)C3)c2ccccc2n1CC(=O)NC12CC3CC(CC(C3)C1)C2
inactive: A549 2.07 µM | HT-29 1.8 µM | UACC-257 1.73 µM | RXF 393 1.75 µM | SNB-19 1.66 µM | HOP-62 2.02 µM | SK-MEL-5 1.82 µM | NCI-H460 1.78 µM | OVCAR-5 1.69 µM | SW-620 1.63 µM | EKVX 2.26 µM | SK-MEL-2 17.2 µM | HCC 2998 1.36 µM | U-251 1.66 µM | COLO 205 1.89 µM

O=c1c2cc(Br)cc(Br)c2nc(CCCl)n1-c1ccc(O)c([N+](=O)[O-])c1
inactive: A549 15.5 µM | HT-29 20.6 µM | UACC-257 15.1 µM | SNB-19 20.1 µM | HOP-62 18.7 µM | SK-MEL-5 20.1 µM | NCI-H460 21 µM | OVCAR-5 18.9 µM | SW-620 19.4 µM | EKVX 34.5 µM | SK-MEL-2 18.9 µM | HCC 2998 18.5 µM | NCI-H226 19.6 µM | U-251 18.4 µM | COLO 205 21 µM

C/C(=N/NS(=O)(=O)c1ccc(C)cc1)c1cccc[n+]1[O-]
inactive: A549 > 100 µM | HT-29 > 100 µM | UACC-257 > 100 µM | SNB-19 > 100 µM | HOP-62 > 100 µM | SK-MEL-5 > 100 µM | NCI-H460 > 100 µM | OVCAR-5 > 100 µM | SW-620 > 100 µM | EKVX > 100 µM | HCC 2998 > 100 µM | U-251 > 100 µM

Cc1cc(C)c(C(=O)c2no[n+]([O-])c2C(=O)c2c(C)cc(C)c(Br)c2C)c(C)c1Br
inactive: A549 13.8 µM | HT-29 12.3 µM | UACC-257 > 10 µM | RXF 393 6.05 µM | SNB-19 15.7 µM | HOP-62 18.2 µM | NCI-H460 14.2 µM | OVCAR-5 16 µM | SW-620 12.9 µM | EKVX 12 µM | SK-MEL-2 14.1 µM | NCI-H226 16.1 µM | U-251 12.5 µM | COLO 205 16.8 µM

O=C1/C(=C/c2ccc3c(c2)OCCO3)CCC/C1=C\c1ccc2c(c1)OCCO2
inactive: A549 23.8 µM | HT-29 6.9 µM | UACC-257 20.1 µM | RXF 393 20 µM | SNB-19 34.8 µM | HOP-62 33.3 µM | SK-MEL-5 25.6 µM | NCI-H460 22.8 µM | OVCAR-5 32.9 µM | SW-620 18.2 µM | EKVX 51.3 µM | HCC 2998 18.1 µM | U-251 14.2 µM | COLO 205 15.6 µM

C/C(CC(=O)CCCC(=O)Nc1ccc(Cl)cc1Cl)=N/NC(=O)CC#N
inactive: A549 > 100 µM | HT-29 > 100 µM | UACC-257 > 100 µM | RXF 393 > 100 µM | SNB-19 > 100 µM | SK-MEL-5 > 100 µM | NCI-H460 > 100 µM | OVCAR-5 > 100 µM | SW-620 > 100 µM | EKVX > 100 µM | SK-MEL-2 > 100 µM | HCC 2998 > 100 µM | NCI-H226 > 100 µM | U-251 > 100 µM | COLO 205 > 100 µM

O=C(O)c1ccc2c(c1)C(=O)N(c1ccc(S(=O)(=O)c3ccc(N4C(=O)c5ccc(C(=O)O)cc5C4=O)cc3)cc1)C2=O
inactive: A549 > 100 µM | HT-29 > 100 µM | UACC-257 > 100 µM | RXF 393 > 100 µM | SNB-19 > 100 µM | HOP-62 > 100 µM | SK-MEL-5 > 100 µM | NCI-H460 > 100 µM | OVCAR-5 > 100 µM | SW-620 > 100 µM | EKVX > 100 µM | SK-MEL-2 > 100 µM | NCI-H226 > 100 µM | U-251 > 100 µM | COLO 205 > 100 µM

CCOc1ccccc1NC(=O)CSc1nnc(Cc2ccccc2)o1
inactive: A549 > 100 µM | HT-29 35.3 µM | UACC-257 29.7 µM | RXF 393 35.7 µM | SNB-19 24 µM | HOP-62 > 100 µM | SK-MEL-5 19.3 µM | NCI-H460 20.2 µM | OVCAR-5 66.1 µM | SW-620 16.6 µM | SK-MEL-2 23.8 µM | HCC 2998 48.1 µM | NCI-H226 25.2 µM | U-251 20.2 µM | COLO 205 20.6 µM

OC12c3ccccc3C1(N1CCOCC1)CCCCC21OCCCO1 (stereo not given)
inactive: A549 > 100 µM | HT-29 > 100 µM | UACC-257 > 100 µM | RXF 393 > 100 µM | SNB-19 > 100 µM | HOP-62 > 100 µM | SK-MEL-5 > 100 µM | NCI-H460 > 100 µM | OVCAR-5 > 100 µM | SK-MEL-2 > 100 µM | NCI-H226 > 100 µM | U-251 > 100 µM | COLO 205 > 100 µM

CCCCCCCCCCCc1nnc(N)o1
inactive: A549 > 100 µM | HT-29 > 100 µM | UACC-257 > 100 µM | SNB-19 18.9 µM | HOP-62 > 100 µM | NCI-H460 > 100 µM | OVCAR-5 > 100 µM | SW-620 > 100 µM | SK-MEL-2 > 100 µM | HCC 2998 > 100 µM | NCI-H226 > 100 µM | U-251 > 100 µM | COLO 205 > 100 µM

CC1CC#CCOC(=O)CCCC1=O (stereo not given)
inactive: A549 > 100 µM | HT-29 > 100 µM | RXF 393 > 100 µM | SNB-19 > 100 µM | HOP-62 > 100 µM | SK-MEL-5 > 100 µM | NCI-H460 > 100 µM | SW-620 > 100 µM | HCC 2998 > 100 µM | NCI-H226 > 100 µM | U-251 > 100 µM | COLO 205 > 100 µM

CCn1c(=O)nc2n(-c3ccc(SC)cc3)c3ccccc3nc-2c1=O
inactive: A549 29.1 µM | UACC-257 > 100 µM | SNB-19 > 100 µM | HOP-62 > 100 µM | SK-MEL-5 9.42 µM | NCI-H460 20.9 µM | OVCAR-5 > 100 µM | SW-620 17.7 µM | EKVX > 100 µM | SK-MEL-2 > 100 µM | HCC 2998 29 µM | NCI-H226 > 100 µM | U-251 > 100 µM | COLO 205 8.15 µM

COP12(OC)NC(=O)OC1(C(F)(F)F)c1ccccc1O2 (stereo not given)
inactive: A549 > 100 µM | HT-29 > 100 µM | UACC-257 > 100 µM | RXF 393 > 100 µM | SNB-19 > 100 µM | SK-MEL-5 > 100 µM | NCI-H460 > 100 µM | SK-MEL-2 > 100 µM | NCI-H226 > 100 µM

COc1cc2ccnc(-c3c4ccccc4c(N)c4c(OC)c(OC)ccc34)c2cc1OC
inactive: A549 4.17 µM | HT-29 2.64 µM | UACC-257 2.32 µM | RXF 393 2.4 µM | SNB-19 2.85 µM | HOP-62 2.96 µM | SK-MEL-5 3.27 µM | NCI-H460 1.79 µM | SW-620 2.28 µM | EKVX 10.4 µM | SK-MEL-2 4.86 µM | HCC 2998 2.62 µM | NCI-H226 2.07 µM | U-251 3.37 µM | COLO 205 1.58 µM

CC(=O)OCC1OC(n2cccnc2=O)C(OC(C)=O)C1OC(C)=O (stereo not given)
inactive: A549 > 100 µM | HT-29 > 100 µM | UACC-257 > 100 µM | RXF 393 > 100 µM | SNB-19 > 100 µM | HOP-62 > 100 µM | SK-MEL-5 > 100 µM | NCI-H460 > 100 µM | OVCAR-5 > 100 µM | SW-620 > 100 µM | EKVX > 100 µM | SK-MEL-2 > 100 µM | NCI-H226 > 100 µM | U-251 > 100 µM | COLO 205 > 100 µM

CC(=O)OC1(C)C(=O)OC1(C)C(C)=O (stereo not given)
inactive: A549 > 100 µM | HT-29 > 100 µM | UACC-257 > 100 µM | RXF 393 > 100 µM | SNB-19 > 100 µM | SK-MEL-5 > 100 µM | OVCAR-5 > 100 µM | SW-620 > 100 µM | EKVX > 100 µM | SK-MEL-2 > 100 µM | HCC 2998 > 100 µM | NCI-H226 > 100 µM | U-251 > 100 µM | COLO 205 > 100 µM

Cc1cccc(O)c(=O)c1
inactive: A549 24.9 µM | HT-29 19 µM | UACC-257 28.3 µM | RXF 393 > 100 µM | SNB-19 92.9 µM | HOP-62 39.2 µM | SK-MEL-5 28.1 µM | NCI-H460 31.7 µM | OVCAR-5 47.6 µM | SW-620 16.4 µM | EKVX 23.6 µM | HCC 2998 44.4 µM | NCI-H226 3.3 µM | U-251 21.4 µM | COLO 205 6.24 µM

COc1cccc(C(=O)C2C(=O)N(C)CCc3ccccc32)c1OC (stereo not given)
inactive: A549 > 100 µM | HT-29 > 100 µM | UACC-257 > 100 µM | RXF 393 > 100 µM | SNB-19 > 100 µM | HOP-62 > 100 µM | SK-MEL-5 > 100 µM | NCI-H460 > 100 µM | SW-620 > 100 µM | SK-MEL-2 > 100 µM | NCI-H226 > 100 µM | U-251 > 100 µM | COLO 205 > 100 µM

Cc1ccc2nc3c(Cl)cc(=O)cc-3sc2c1
inactive: A549 19.5 µM | HT-29 29.4 µM | UACC-257 20.2 µM | SNB-19 > 10 µM | SK-MEL-5 17.1 µM | NCI-H460 29.4 µM | OVCAR-5 > 10 µM | SW-620 21.6 µM | EKVX 22.2 µM | SK-MEL-2 > 10 µM | NCI-H226 27.2 µM | U-251 20.7 µM | COLO 205 18.7 µM

CC1(C)CCCC2(C)[C@@H]1CC[C@@]13CC(=O)[C@@](C)(CC[C@@H]21)C3 (stereo not given in full)
inactive: A549 85.1 µM | HT-29 30 µM | UACC-257 32.7 µM | RXF 393 18.3 µM | SNB-19 > 100 µM | HOP-62 82.2 µM | SK-MEL-5 52.5 µM | NCI-H460 42.1 µM | OVCAR-5 > 100 µM | SW-620 > 100 µM | HCC 2998 > 100 µM | NCI-H226 83.4 µM | U-251 49 µM | COLO 205 > 100 µM
